Biological target: recombinant human PDE-10 enzyme (Homo sapiens (Human), UniProt Q9Y233)
Assay: Molecular Devices IMAP PDE Fluorescence Polarization assay, human PDE-10 inhibition (enzyme assay IC50)
Assay type: biochemical
Settings: recombinant human PDE-10 expressed in baculoviral system; Fluorescein-labeled cAMP/cGMP substrate; 40-minute incubation at 37° C.
Protocol: In one embodiment, the compounds provided herein were assayed for their ability to inhibit human PDE-10A. In one embodiment, the activities of the compounds were determined using the Molecular Devices IMAP PDE Fluorescence Polarization assay using recombinant human PDE-10 enzyme expressed in a baculoviral system. Briefly, 10 μL of a compound (0.2 nM-20 μM) was added to either a 96-well half area black plate or a 384-well black plate along with 10 μL of Fluorescein-labeled cAMP/cGMP substrate as per manufacturer's instructions and 10 μL of PDE enzyme (activity 0.1 U). Following a 40-minute incubation at 37° C., 60 μL of IMAP binding reagent was added. The plate was then read on a Perkin Elmer Victor (480-535 nm). The data was analyzed using Prism Software (GraphPad Inc, San Diego, Calif.).

Sequence of recombinant human PDE-10 enzyme (Q9Y233 whole entry): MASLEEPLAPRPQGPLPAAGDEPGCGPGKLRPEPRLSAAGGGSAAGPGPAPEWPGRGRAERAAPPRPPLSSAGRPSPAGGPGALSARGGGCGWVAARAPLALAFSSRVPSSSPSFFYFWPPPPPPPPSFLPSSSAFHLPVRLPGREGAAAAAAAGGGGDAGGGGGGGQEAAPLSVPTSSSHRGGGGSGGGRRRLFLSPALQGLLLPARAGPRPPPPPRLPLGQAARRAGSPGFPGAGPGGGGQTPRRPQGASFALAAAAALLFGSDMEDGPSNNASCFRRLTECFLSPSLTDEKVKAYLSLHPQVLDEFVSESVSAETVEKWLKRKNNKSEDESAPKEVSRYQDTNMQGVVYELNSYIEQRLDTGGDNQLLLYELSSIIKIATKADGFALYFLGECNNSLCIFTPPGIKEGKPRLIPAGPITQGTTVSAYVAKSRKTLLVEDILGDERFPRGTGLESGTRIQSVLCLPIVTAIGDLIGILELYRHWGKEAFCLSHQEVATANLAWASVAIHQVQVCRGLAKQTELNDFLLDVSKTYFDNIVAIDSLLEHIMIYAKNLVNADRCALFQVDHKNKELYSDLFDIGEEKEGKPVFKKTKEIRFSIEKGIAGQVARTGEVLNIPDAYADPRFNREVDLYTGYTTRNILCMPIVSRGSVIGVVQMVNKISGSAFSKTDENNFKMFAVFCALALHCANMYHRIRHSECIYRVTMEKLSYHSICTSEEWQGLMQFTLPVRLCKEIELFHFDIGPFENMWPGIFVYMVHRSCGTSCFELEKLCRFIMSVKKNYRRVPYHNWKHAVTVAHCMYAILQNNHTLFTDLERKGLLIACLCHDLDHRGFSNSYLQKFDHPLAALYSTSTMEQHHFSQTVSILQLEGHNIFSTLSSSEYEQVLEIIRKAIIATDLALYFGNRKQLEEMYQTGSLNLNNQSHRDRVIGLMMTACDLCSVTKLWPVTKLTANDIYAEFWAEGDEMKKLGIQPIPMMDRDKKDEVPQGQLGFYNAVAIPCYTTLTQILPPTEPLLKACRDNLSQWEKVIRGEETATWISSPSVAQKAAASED

Compound	IC50 [nM]
Cc1ccc2ccc(CCc3nc4c(C)ncc(C)n4n3)nc2c1 [Compound 1, 2-(2-(5,8-dimethyl-[1,2,4]triazolo[1,5-a]pyrazin-2-yl)ethyl)-7-methylquinoline]	≤ 10
COc1ccc2ccc(CCc3nc4c(C)ncc(C)n4n3)nc2c1 [Compound 2, 2-(2-(5,8-dimethyl-[1,2,4]triazolo[1,5-a]pyrazin-2-yl)ethyl)-7-methoxyquinoline]	≤ 10
Cc1ncc(C)n2nc(CCc3ccc4c(n3)NC(C)CC4)nc12 (stereo not drawn) [Compound 3, 7-(2-(5,8-dimethyl-[1,2,4]triazolo[1,5-a]pyrazin-2-yl)ethyl)-2-methyl-1,2,3,4-tetrahydro-1,8-naphthyridine]	10 to 100
Cc1ncc(C)n2nc(CCc3ccc4c(n3)N[C@H](C)CC4)nc12 [Compound 4, (R)-7-(2-(5,8-dimethyl-[1,2,4]triazolo[1,5-a]pyrazin-2-yl)ethyl)-2-methyl-1,2,3,4-tetrahydro-1,8-naphthyridine]	10 to 100
Cc1ncc(C)n2nc(CCc3ccc4c(n3)N[C@@H](C)CC4)nc12 [Compound 5, (S)-7-(2-(5,8-dimethyl-[1,2,4]triazolo[1,5-a]pyrazin-2-yl)ethyl)-2-methyl-1,2,3,4-tetrahydro-1,8-naphthyridine]	10 to 100
Cc1ncc(C)n2nc(CCc3ccc4c(n3)NC(C)CO4)nc12 (stereo not drawn) [Compound 6, 6-(2-(5,8-dimethyl-[1,2,4]triazolo[1,5-a]pyrazin-2-yl)ethyl)-3-methyl-3,4-dihydro-2H-pyrido[3,2-b][1,4]oxazine]	10 to 100
Cc1ncc(C)n2nc(CCc3ccc4c(n3)N[C@H](C)CO4)nc12 [Compound 7, (R)-6-(2-(5,8-dimethyl-[1,2,4]triazolo[1,5-a]pyrazin-2-yl)ethyl)-3-methyl-3,4-dihydro-2H-pyrido[3,2-b][1,4]oxazine]	10 to 100
Cc1ncc(C)n2nc(CCc3ccc4c(n3)N[C@@H](C)CO4)nc12 [Compound 8, (S)-6-(2-(5,8-dimethyl-[1,2,4]triazolo[1,5-a]pyrazin-2-yl)ethyl)-3-methyl-3,4-dihydro-2H-pyrido[3,2-b][1,4]oxazine]	100 to 500
CCC1COc2ccc(CCc3nc4c(C)ncc(C)n4n3)nc2N1 (stereo not drawn) [Compound 9, 6-(2-(5,8-dimethyl-[1,2,4]triazolo[1,5-a]pyrazin-2-yl)ethyl)-3-ethyl-3,4-dihydro-2H-pyrido[3,2-b][1,4]oxazine]	10 to 100
Cc1ncc(C)n2nc(CCc3ccc4c(n3)N(C)C(C)CO4)nc12 (stereo not drawn) [Compound 10, 6-(2-(5,8-dimethyl-[1,2,4]triazolo[1,5-a]pyrazin-2-yl)ethyl)-3,4-dimethyl-3,4-dihydro-2H-pyrido[3,2-b][1,4]oxazine]	100 to 500
CCC1COc2ccc(CCc3nc4c(C)ncc(C)n4n3)nc2N1C (stereo not drawn) [Compound 11, 6-(2-(5,8-dimethyl-[1,2,4]triazolo[1,5-a]pyrazin-2-yl)ethyl)-3-ethyl-4-methyl-3,4-dihydro-2H-pyrido[3,2-b][1,4]oxazine]	> 500
Cc1ncc(C)n2nc(CCc3ccc4c(n3)NC(C)(C)CO4)nc12 [Compound 12, 6-(2-(5,8-dimethyl-[1,2,4]triazolo[1,5-a]pyrazin-2-yl)ethyl)-3,3-dimethyl-3,4-dihydro-2H-pyrido[3,2-b][1,4]oxazine]	100 to 500

Source: patent US9670230B2, “Heteroaryl compounds and methods of use thereof” (SUNOVION PHARMACEUTICALS INC., priority 2012, dated 2017)
